From patent publication EP3319936B1, “BRIDGE LINKERS FOR CONJUGATION OF CELL-BINDING MOLECULES” (priority 2015, dated 2015)

Tests used:
N87 cell (Ag+) = assay: In vitro cytotoxicity (MTT) assay, N87 cells; type: cell-based, human
Protocol: (§1) The cell lines used in the cytotoxicity assays were HL-60, a human promyelocytic leukemia cell line; NCI-N87, a human gastric carcinoma cell line; and SKOV3, a human ovarian carcinoma cell line. […] For SKOV3 cells, the cells were grown in McCoy's 5A Medium with 10% FBS. To run the assay, the cells (180 µl, 6000 cells) were added to each well in a 96-well plate and incubated for 24 hours at 37°C with 5% CO2. Next, the cells were treated with test compounds (20 µl) at various concentrations in appropriate cell culture medium (total volume, 0.2 mL). The control wells contain cells and the medium but lack the test compounds. The plates were incubated for 120 hours at 37°C with 5% CO2. MTT (5mg/ml) was then added to the wells (20 µl) and the plates were incubated for 1.5hr at 37°C. The medium was carefully removed and DMSO (180 µl) was added afterward. […] The inhibition% was calculated according to the following equation: inhibition% = [1-(assay-blank)/(control-blank)] × 100.

SK-OV-3 cell (Ag+) = assay: In vitro cytotoxicity (MTT) assay, SK-OV-3 cells; type: cell-based, human
Protocol: as §1

HL60 cell (Ag-) = assay: In vitro cytotoxicity (MTT) assay, HL60 cells; type: cell-based; settings: HL-60 human promyelocytic leukemia cell line, 120 hours incubation
Protocol: as §1

T-DM1 was tested, and the IC50 (N87 cell (Ag+); NCI-N87 human gastric carcinoma cell line, 120 hours incubation, MTT) was 0.266 nM, the “Specificity for N87 cell” value (N87 cell (Ag+); matches ratio of HL60 (Ag-) IC50 bound to N87 IC50) was “over 56” and the IC50 (SK-OV-3 cell (Ag+); SKOV3 human ovarian carcinoma cell line, 120 hours incubation, MTT) was 0.177 nM. For the same substance, the “Specificity for SK-OV-3 cell” value (SK-OV-3 cell (Ag+); matches ratio of HL60 (Ag-) IC50 bound to SK-OV-3 IC50) was “over 84” and the IC50 (HL60 cell (Ag-)) was over 15 nM.
